Numbers after ± are expanded uncertainties.
Conditions: Liquid

C1CCCCC1 [cyclohexane]
Conditions | vapor or sublimation pressure [kPa]
302.92 K | 16.06 ± 0.037
304.19 K | 16.95 ± 0.037
306.91 K | 19.05 ± 0.038
308.27 K | 20.16 ± 0.038
309.9 K | 21.56 ± 0.039
313.16 K | 24.61 ± 0.04
318.19 K | 30.03 ± 0.042
323.14 K | 36.23 ± 0.044
328.16 K | 43.51 ± 0.047
331.9 K | 49.68 ± 0.05
333.16 K | 51.9 ± 0.051
333.17 K | 51.9 ± 0.051
338.16 K | 61.56 ± 0.054
343.16 K | 72.53 ± 0.058
345.42 K | 77.94 ± 0.061
348.05 K | 84.73 ± 0.063

CCO [ethanol]
Conditions | vapor or sublimation pressure [kPa]
312.17 K | 17 ± 0.037
313.43 K | 18.15 ± 0.038
318.15 K | 23.07 ± 0.04
318.24 K | 23.18 ± 0.04
320.87 K | 26.39 ± 0.041
323.15 K | 29.48 ± 0.043
326.13 K | 34 ± 0.044
326.16 K | 34.02 ± 0.044
328.14 K | 37.34 ± 0.046
328.17 K | 37.39 ± 0.046
330.65 K | 41.9 ± 0.048
333.16 K | 46.94 ± 0.05
336.1 K | 53.47 ± 0.053
336.14 K | 53.56 ± 0.053
338.16 K | 58.48 ± 0.056
343.15 K | 72.3 ± 0.061
348.14 K | 88.77 ± 0.068
351.38 K | 101.11 ± 0.069
351.42 K | 101.23 ± 0.069

O [water]
Conditions | vapor or sublimation pressure [kPa]
327.13 K | 15 ± 0.036
328.16 K | 15.75 ± 0.037
330.78 K | 17.85 ± 0.037
333.15 K | 19.94 ± 0.038
335.82 K | 22.53 ± 0.039
338.15 K | 25.02 ± 0.04
340.67 K | 27.98 ± 0.042
343.16 K | 31.21 ± 0.043
346.13 K | 35.42 ± 0.044
348.14 K | 38.55 ± 0.046
353.14 K | 47.36 ± 0.05
358.14 K | 57.79 ± 0.053
